Experimental findings from patent US7186732B2, “Non-imidazole aryloxyalkylamines” (Ortho-McNeil Pharmaceutical, Inc., priority 2000, dated 2007) are described below.

For orientation: Ki means a dissociation constant, usually derived from enzyme kinetics or from competition with a known ligand.

Where a name gives a salt, the structure may show the parent alone.

For one experiment, the target named is T1, human histamine H3 receptor (Homo sapiens, UniProt Q9Y5N1).
T1 construct: expressed in transfected cells; membranes prepared from cell pellets
T1 sequence (Q9Y5N1 whole entry): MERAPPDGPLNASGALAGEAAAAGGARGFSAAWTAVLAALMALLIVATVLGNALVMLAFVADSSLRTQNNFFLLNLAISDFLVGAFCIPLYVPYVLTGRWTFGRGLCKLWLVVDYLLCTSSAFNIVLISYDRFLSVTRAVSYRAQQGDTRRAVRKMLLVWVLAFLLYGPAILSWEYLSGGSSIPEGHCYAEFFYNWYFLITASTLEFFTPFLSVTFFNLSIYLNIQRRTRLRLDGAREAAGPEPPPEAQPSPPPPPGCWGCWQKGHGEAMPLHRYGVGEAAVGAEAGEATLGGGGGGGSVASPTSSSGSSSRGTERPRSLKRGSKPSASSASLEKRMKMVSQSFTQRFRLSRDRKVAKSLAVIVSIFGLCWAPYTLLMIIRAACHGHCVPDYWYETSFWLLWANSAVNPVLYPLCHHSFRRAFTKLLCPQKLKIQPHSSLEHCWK
In words: [3H]-N-methylhistamine binding to membranes of histamine H3 receptor-expressing SK-N-MC cells. The note with it: 0.8 nM [3H]-N-methylhistamine, 45 min at 25° C., SK-N-MC cell membranes; Ki=(IC50)/(1+([L]/(Kd)); read-out: Ki. Here is the method:
Thus in the present invention receptor binding was determined using the human histamine H3 receptor (See Lovenberg et al Mol. Pharmacol. 1999, 1107). Screening using the human receptor is particularly important for the identification of new therapies for the treatment of human disease. Conventional binding assays for example are determined using rat synaptosomes (Garbarg et al J. Pharmacol. Exp. Ther. 1992, 263, 304), rat cortical membranes (West et al Mol. Pharmacol. 1990, 610), and guinea pig brain (Korte et al Biochem. Biophys. Res. Commun. 1990, 978).
Transfection of Cells with Human Histamine Receptor
A 10 cm tissue culture dish with a confluent monolayer of SK-N-MC cells was split two days prior to transfection. Using sterile technique the media was removed and the cells were detached from the dish by the addition of trypsin. One fifth of the cells were then placed onto a new 10 cm dish. Cells were grown in a 37° C. incubator with 5% CO2 in Minimal Essential Media Eagle with 10% Fetal Bovine Serum. After two days cells were approximately 80% confluent. These were removed from the dish with trypsin and pelleted in a clinical centrifuge. The pellet was then re-suspended in 400 μL complete media and transferred to an electroporation cuvette with a 0.4 cm gap between the electrodes (Bio-Rad #165–2088). One microgram of supercoiled H3 receptor cDNA was added to the cells and mixed. The voltage for the electroporation was set at 0.25 kV, the capacitance was set at 960 μF. After electroporation the cells were diluted into 10 mL complete media and plated onto four 10 cm dishes. Because of the variability in the efficiency of electroporation, four different concentrations of cells were plated. The ratios used were; 1:20, 1:10, 1:5, with the remainder of the cells being added to the fourth dish. The cells were allowed to recover for 24 hours before adding the selection media (complete media with 600 μg/mL G418). After 10 days dishes were analyzed for surviving colonies of cells. Dishes with well isolated colonies were used. Cells from individual colonies were isolated and tested. SK-N-MC cells were used because they give efficient coupling for inhibition of adenylate cyclase. The clones that gave the most robust inhibition of adenylate cyclase in response to histamine were used for further study.
[^3H]-N-methylhistamine Binding
Cell pellets from histamine H3 receptor-expressing SK-N-MC cells were homogenized in 20 mM TrisHCI/0.5 mM EDTA. Supernatants from a 800 g spin were collected, recentrifuged at 30,000 g for 30 minutes. Pellets were re-homogenized in 50 mM Tris/5 mM EDTA (pH 7.4). Membranes were incubated with 0.8 nM [^3H]-N-methylhistamine plus/minus test compounds for 45 min at 25° C. and harvested by rapid filtration over GF/C glass fiber filters (pretreated with 0.3% polyethylenimine) followed by four washes with ice cold buffer. Filters were dried, added to 4 mL scintillation cocktail and then counted on a liquid scintillation counter. Non-specific binding was defined with 10 μM histamine. The pKi values were calculated based on a Kd of 800 pM and a ligand concentration ([L]) of 800 pM according to the formula: Ki=(IC50)/(1+([L]/(Kd))
For `Clc1ccc(NCc2ccccc2OCCCN2CCCCC2)cc1` [Example 67, (4-Chloro-phenyl)-[2-(3-piperidin-1-yl-propoxy)-benzyl]-amine], the Ki was determined as 1500 nM. Still for that read-out and setting: to `CN(C)CCCOc1ccc(CN2CCCCC2)cc1` [Example 40, Dimethyl-[3-(4-piperidin-1-ylmethyl-phenoxy)-propyl]-amine] belongs 5.7 nM; to `c1cc(OCCCN2CCCCC2)ccc1CN1CCCCCCCCCCCC1` [Example 45, 1-[4-(3-Piperidin-1-yl-propoxy)-benzyl]-azacyclotridecane], 2.5 nM. Turning to `COc1ccc(CCN(C)Cc2ccc(OCCCN3CCCCC3)cc2)cc1OC` [Example 82, [2-(3,4-Dimethoxy-phenyl)-ethyl]-methyl-[4-(3-piperidin-1-yl-propoxy)-benzyl]-amine], the inhibitory constant (Ki) was 1.6 nM. The same measure, in the same setting: next, `c1cc(OCCCN2CCCCC2)ccc1CNC1CC1` [Example 50, Cyclopropyl-[4-(3-piperidin-1-yl-propoxy)-benzyl]-amine]: 1 nM.

As to `c1ccc(CC2CCN(Cc3ccc(OCCCN4CCCCC4)cc3)CC2)cc1` [Example 93, 1-{3-[4-(4-Benzyl-piperidin-1-ylmethyl)-phenoxy]-propyl}-piperidine], the Ki turned out to be 1.3 nM. The same measure, in the same setting: next, `c1ccc(NCc2ccccc2OCCCN2CCCCC2)nc1` [Example 65, [2-(3-Piperidin-1-yl-propoxy)-benzyl]-pyridin-2-yl-amine]: 100 nM; `Clc1ccc(NCc2ccc(OCCCN3CCCCC3)cc2)cc1` [Example 85, (4-Chloro-phenyl)-[4-(3-piperidin-1-yl-propoxy)-benzyl]-amine]: 23 nM; `c1ccc(N2CCN(Cc3ccc(OCCCN4CCCCC4)cc3)CC2)cc1` [Example 91, 1-Phenyl-4-[4-(3-piperidin-1-yl-propoxy)-benzyl]-piperazine]: 1 nM. Same read-out and setting: next, `CN(CCc1ccccc1)Cc1ccc(OCCCN2CCCCC2)cc1` [Example 83, Methyl-phenethyl-[4-(3-piperidin-1-yl-propoxy)-benzyl]-amine]: 1.7 nM; `CN(CCc1ccccc1)Cc1cccc(OCCCN2CCCCC2)c1` [Example 74, Methyl-phenethyl-[3-(3-piperidin-1-yl-propoxy)-benzyl]-amine]: 3 nM. Still for that read-out and setting: next, `CN(Cc1ccccc1)C1CCN(Cc2ccc(OCCCN3CCCCC3)cc2)CC1` [Example 43, Benzyl-methyl-{1-[4-(3-piperidin-1-yl-propoxy)-benzyl]-piperidin-4-yl}-amine]: 0.5 nM; `CC(C)N1CCN(c2ccc(OCCCN3CCCCC3)cc2)CC1` [Example 26, 1-Isopropyl-4-[4-(3-piperidin-1-yl-propoxy)-phenyl]-piperazine]: 0.3 nM; `C(=C1CCN(Cc2cccc(OCCCN3CCCCC3)c2)CC1)c1ccccc1` [Example 71, 1-{3-[3-(4-Benzylidene-piperidin-1-ylmethyl)-phenoxy]-propyl}-piperidine]: 1.8 nM. In the case of `c1cc(OCCN2CCCCC2)ccc1OCCCN1CCCCC1` [Example 30, 1-{3-[4-(2-Piperidin-1-yl-ethoxy)-phenoxy]-propyl}-piperidine], the Ki is 0.4 nM. The same measure, in the same setting: next, `c1ccc2c(c1)CCN(Cc1ccc(OCCCN3CCCCC3)cc1)C2` [Example 36, 2-[4-(3-Piperidin-1-yl-propoxy)-benzyl]-1,2,3,4-tetrahydro-isoquinoline]: 0.7 nM. Take `CC(C)N1CCN(Cc2ccc(OCCCN3CCCCC3)cc2)CC1` [Example 88, 1-Isopropyl-4-[4-(3-piperidin-1-yl-propoxy)-benzyl]-piperazine]: the Ki stood at 2 nM. Still for that read-out and setting: to `CCN(CC)CCOc1ccc(CN2CCCCC2)cc1` [Example 81, Diethyl-[2-(4-piperidin-1-ylmethyl-phenoxy)-ethyl]-amine] belongs 140 nM; to `c1ccc(CN2CCN(c3ccc(OCCCN4CCCC4)cc3)CC2)cc1` [Example 24, 1-Benzyl-4-[4-(3-pyrrolidin-1-yl-propoxy)-phenyl]-piperazine], 1.3 nM; to `CN1CCN(Cc2ccc(OCCCN3CCCCC3)cc2)CC1` [Example 53, 1-Methyl-4-[4-(3-piperidin-1-yl-propoxy)-benzyl]-piperazine], 2.5 nM. Still for that read-out and setting: next, `c1ccc2c(c1)CCC2NCc1ccc(OCCCN2CCCCC2)cc1` (stereo not shown) [Example 47, Indan-1-yl-[4-(3-piperidin-1-yl-propoxy)-benzyl]-amine]: 1 nM; `c1ccc(NCc2ccc(OCCCN3CCCC3)cc2)nc1` [Example 39, Pyridin-2-yl-[4-(3-pyrrolidin-1-yl-propoxy)-benzyl]-amine]: 4.5 nM. On the same count and under the same terms, next, `Clc1ccc(N2CC3CC2CN3Cc2ccc(OCCCN3CCCCC3)cc2)cc1` (stereo not shown) [Example 55, 2-(4-Chloro-phenyl)-5-[4-(3-piperidin-1-yl-propoxy)-benzyl]-2,5-diaza-bicyclo[2.2.1]heptane]: 1.4 nM. As for `CN1CCC(N(C)Cc2ccc(OCCCN3CCCCC3)cc2)CC1` [Example 76, Methyl-(1-methyl-piperidin-4-yl)-[4-(3-piperidin-1-yl-propoxy)-benzyl]-amine], the Ki was 1.1 nM.

On to `C(=C\c1ccccc1)/CN1CCN(Cc2ccc(OCCCN3CCCCC3)cc2)CC1` [Example 75, 1-(3-Phenyl-allyl)-4-[4-(3-piperidin-1-yl-propoxy)-benzyl]-piperazine], for which the Ki is 1.6 nM. On the same count and under the same terms, next, `OC1(c2ccccc2)CCN(Cc2ccc(OCCCN3CCCCC3)cc2)CC1` [Example 87, 4-Phenyl-1-[4-(3-piperidin-1-yl-propoxy)-benzyl]-piperidin-4-ol]: 1 nM.

Regarding `c1cc(OCCCN2CCOCC2)ccc1CN1CCCCC1` [Example 51, 4-[3-(4-Piperidin-1-ylmethyl-phenoxy)-propyl]-morpholine], the Ki amounted to 4 nM. Same read-out and setting: next, `CN(CCc1ccccn1)Cc1ccc(OCCCN2CCCCC2)cc1` [Example 78, Methyl-[4-(3-piperidin-1-yl-propoxy)-benzyl]-(2-pyridin-2-yl-ethyl)-amine]: 1 nM; `c1ccc(CN(CCCn2cccc2-c2ccc(OCCCN3CCCCC3)cc2)Cc2ccccc2)cc1` [Example 92, Dibenzyl-(3-{2-[4-(3-piperidin-1-yl-propoxy)-phenyl]-pyrrol-1-yl}-propyl)-amine]: 5.5 nM; `CC1CCCCN1CCCOc1ccc(CN2CCCCC2)cc1` (stereo not shown) [Example 73, 2-Methyl-1-[3-(4-piperidin-1-ylmethyl-phenoxy)-propyl]-piperidine]: 1.1 nM. Turning to `CN(C)CCOc1ccc(OCCCN2CCCCC2)cc1` [Example 29, Dimethyl-{2-[4-(3-piperidin-1-yl-propoxy)-phenoxy]-ethyl}-amine], the Ki was 2.3 nM. For `c1cc(OCCCN2CCCCC2)ccc1CN1CCC2(CC1)OCCO2` [Example 54, 8-[4-(3-Piperidin-1-yl-propoxy)-benzyl]-1,4-dioxa-8-aza-spiro[4.5]decane], the Ki was 1 nM.

Still in this experiment, the particulars now being: 0.8 nM [3H]-N-methylhistamine, 45 min at 25° C., SK-N-MC cell membranes; […]; read-out: Ki.
On to `c1ccc(CN2CCN(c3ccc(OCCCN4CCCCC4)cc3)CC2)cc1` [Example 27, 1-Benzyl-4-[4-(3-piperidin-1-yl-propoxy)-phenyl]-piperazine], for which the Ki came out at 3 nM.

In the case of `c1ccc2c(c1)ncn2C1CCN(Cc2ccc(OCCCN3CCCCC3)cc2)CC1` [Example 60, 1-{1-[4-(3-Piperidin-1-yl-propoxy)-benzyl]-piperidin-4-yl}-1H-benzoimidazole], the Ki was 2 nM. For `c1cc(N2CCNCC2)ccc1OCCCN1CCCC1` [Example 23, 1-[4-(3-Pyrrolidin-1-yl-propoxy)-phenyl]-piperazine hydrochloride], the Ki amounted to 1.3 nM. On the same count and under the same terms, to `OC1(c2ccc(Cl)cc2)CCN(Cc2ccc(OCCCN3CCCCC3)cc2)CC1` [Example 86, 4-(4-Chloro-phenyl)-1-[4-(3-piperidin-1-yl-propoxy)-benzyl]-piperidin-4-ol] belongs 1.8 nM; to `CC(C)N1CCC(O)(c2ccc(OCCCN3CCCCC3)cc2)CC1` [Example 77, 1-Isopropyl-4-[4-(3-piperidin-1-yl-propoxy)-phenyl]-piperidin-4-ol], 2.9 nM.
